{"source": "patent US20240197806A1", "about": "“EBELIN LACTONE OR BACOGENIN A1 ENRICHED COMPOSITION AND METHOD OF PREPARATION THEREOF” (priority 2022, published 2024)", "origin": "cited, not measured here", "key": {"[1]": {"conditions": "Ramasamy et al., PLoS One 2015"}, "[2]": {"conditions": "Ramasamy et al., PLoS One 2015", "remark": "listed apart in the source"}, "5-HT2A receptors": {"biological_target": "5-HT2A receptors (Homo sapiens, UniProt P28223)", "sequence (P28223 whole entry)": "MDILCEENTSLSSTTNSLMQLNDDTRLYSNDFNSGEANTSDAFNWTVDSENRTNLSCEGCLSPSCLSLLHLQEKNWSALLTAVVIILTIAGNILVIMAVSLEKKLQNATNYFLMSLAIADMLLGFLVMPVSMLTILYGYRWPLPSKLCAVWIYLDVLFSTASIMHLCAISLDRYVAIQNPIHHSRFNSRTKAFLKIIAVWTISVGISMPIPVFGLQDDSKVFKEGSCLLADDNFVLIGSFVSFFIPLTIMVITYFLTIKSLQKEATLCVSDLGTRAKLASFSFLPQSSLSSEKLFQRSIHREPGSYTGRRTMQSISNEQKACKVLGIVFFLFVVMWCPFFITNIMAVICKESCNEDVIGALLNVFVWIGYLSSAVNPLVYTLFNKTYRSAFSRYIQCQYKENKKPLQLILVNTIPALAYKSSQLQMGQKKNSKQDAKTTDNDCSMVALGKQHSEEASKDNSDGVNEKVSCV", "conditions": "read-out: Ki, binding to the 5-HT2A receptors"}}, "data": [{"compound": "CC1=CC(C)(C)O[C@@]1(C)C1C(=O)C[C@]2(CO)C1CCC1[C@@]3(C)CC[C@H](O)C(C)(C)C3CC[C@]12C", "note": "(stereo partly drawn) [bacogenin A1]", "values": [{"measurement": "intestinal absorption", "setting": "[1]", "result": "same absorption parameters as jujubogenin and pseudojujubogenin"}]}, {"compound": "CC(C)=C[C@@H]1CO[C@]23C[C@]4(CO2)[C@H](CC[C@@H]2[C@@]5(C)CC[C@H](O[C@@H]6OC[C@H](O)[C@H](O[C@@H]7O[C@H](CO)[C@@H](O)[C@H](O)[C@H]7O)[C@H]6O[C@@H]6O[C@@H](CO)[C@H](O)[C@H]6O)C(C)(C)[C@@H]5CC[C@]24C)[C@H]3[C@@]1(C)O", "note": "[bacopasaponin C]", "values": [{"measurement": "intestinal absorption", "setting": "[1]", "result": "poor"}, {"measurement": "ability to cross the blood brain barrier / blood brain barrier penetration", "setting": "[2]", "result": "not able to cross"}]}, {"compound": "CC(C)=C[C@H]1C[C@](C)(O)[C@@H]2[C@H]3CC[C@@H]4[C@@]5(C)CC[C@H](O[C@@H]6OC[C@H](O)[C@H](O[C@@H]7O[C@H](CO)[C@@H](O)[C@H](O)[C@H]7O)[C@H]6O[C@@H]6O[C@@H](CO)[C@H](O)[C@H]6O)C(C)(C)[C@@H]5CC[C@@]4(C)[C@@]34CO[C@@]2(C4)O1", "note": "[bacopaside X]", "values": [{"measurement": "intestinal absorption", "setting": "[1]", "result": "poor"}, {"measurement": "ability to cross the blood brain barrier / blood brain barrier penetration", "setting": "[2]", "result": "not able to cross"}]}, {"compound": "CC(C)=C[C@H]1C[C@](C)(O)[C@H]2[C@H]3CC[C@@H]4[C@@]5(C)CC[C@H](O[C@@H]6O[C@H](CO)[C@@H](O)[C@H](O[C@@H]7O[C@H](CO)[C@@H](O)[C@H](O)[C@H]7O)[C@H]6O[C@@H]6O[C@@H](CO)[C@H](O)[C@H]6O)C(C)(C)[C@@H]5CC[C@@]4(C)[C@@]34CO[C@@]2(C4)O1", "note": "[bacoside A3]", "values": [{"measurement": "intestinal absorption", "setting": "[1]", "result": "poor"}, {"measurement": "ability to cross the blood brain barrier / blood brain barrier penetration", "setting": "[2]", "result": "not able to cross"}]}, {"compound": "CC(C)=C/C=C/C(C)=C/C1CCC2[C@@]3(C)CC[C@H](O)C(C)(C)C3CC[C@@]2(C)[C@@]12COC(=O)C2", "note": "(stereo partly drawn) [ebelin lactone]", "values": [{"measurement": "ability to cross the blood brain barrier / blood brain barrier penetration", "setting": "[2]", "result": "very high"}, {"measurement": "Ki", "setting": "5-HT2A receptors", "result": 4.21, "unit": "µM"}]}, {"compound": "CC(C)=CC1C[C@](C)(O)C2C3CCC4[C@@]5(C)CC[C@H](O)C(C)(C)C5CC[C@@]4(C)[C@]34CO[C@]2(C4)O1", "note": "(stereo partly drawn) [jujubogenin]", "values": [{"measurement": "intestinal absorption", "setting": "[1]", "result": "good"}, {"measurement": "ability to cross the blood brain barrier / blood brain barrier penetration", "setting": "[2]", "result": "able to cross"}]}, {"compound": "CC(C)=CC1COC23CC4(CO2)C(CCC2C5(C)CCC(O)C(C)(C)C5CCC24C)C3C1(C)O", "note": "(stereo not drawn) [pseudojujubogenin]", "values": [{"measurement": "intestinal absorption", "setting": "[1]", "result": "good"}, {"measurement": "ability to cross the blood brain barrier / blood brain barrier penetration", "setting": "[2]", "result": "able to cross"}]}, {"compound": "bacopaside II", "values": [{"measurement": "intestinal absorption", "setting": "[1]", "result": "poor"}, {"measurement": "ability to cross the blood brain barrier / blood brain barrier penetration", "setting": "[2]", "result": "not able to cross"}]}]}
